System: antiserum (antibody raised in rabbits to the antigen of Example I, N-TFA-p-aminoamphetamine coupled to BSA)
Assay: Radioimmune assay for amphetamine: competitive inhibition of 3H-d-amphetamine binding to, and cross-reactivity of, antiserum raised to the antigen of Example I
Conditions: for Percent Cross-Reactivity: method of Abraham, relative quantity that produces 50% inhibition x 100, d-amphetamine = 100; for Percent Inhibition of Binding 3H-d-amphetamine: 3H-d-amphetamine 137 picograms, 2 hours, 4° C

SMILES	Percent Cross-Reactivity	further results
C[C@@H](N)Cc1ccccc1 [1-amphetamine]	1.45%	–
C[C@H](N)Cc1ccccc1 [d-amphetamine]	100%	Percent Inhibition of Binding 3H-d-amphetamine (250 picograms of unlabeled amphetamine): 12%; Percent Inhibition of Binding 3H-d-amphetamine (500 picograms of unlabeled amphetamine): 22%; Percent Inhibition of Binding 3H-d-amphetamine (1,000 picograms of unlabeled amphetamine): 33.5%; Percent Inhibition of Binding 3H-d-amphetamine (10,000 picograms of unlabeled amphetamine): 83.0%
CNCC(O)c1ccc(O)c(OC)c1 (stereo not shown) [metanephrine]	< 0.0125%	–
CN[C@@H](C)Cc1ccccc1 [methadrine]	0.45%	–
COc1cc(C(O)CN)ccc1O (stereo not shown) [normetanephrine]	< 0.0125%	–
NCCc1ccc(O)cc1 [tyramine]	3.4%	–
